Source: patent US8435980B2 (AbbVie Inc., priority 2009, dated 2013)

Target: T1, Cdc7 (BEV coexpressed huCDC7/DBF4) (Homo sapiens, UniProt O00311)
T1 construct: made in house; host or cells: BEV (baculovirus expression vector) co-expression; insect cells are implied but no cell line is named
Assay: Cdc7 enzyme inhibition assay ([33P]ATP, biotinylated peptide substrate, FlashPlate)
Format: biochemical
Conditions: Table 3; enzyme inhibition data (Ki)
Experimental: Cdc7 (BEV coexpressed huCDC7/DBF4) is prepared internally. Cdc7 assays are conducted as follows with final concentrations as listed. […] Reactions are quenched after 1 hr by the addition of 90 μL stop buffer (50 mM EDTA, 2M NaCl). […] (Ki) for exemplary compounds.

T1 sequence (O00311 whole entry): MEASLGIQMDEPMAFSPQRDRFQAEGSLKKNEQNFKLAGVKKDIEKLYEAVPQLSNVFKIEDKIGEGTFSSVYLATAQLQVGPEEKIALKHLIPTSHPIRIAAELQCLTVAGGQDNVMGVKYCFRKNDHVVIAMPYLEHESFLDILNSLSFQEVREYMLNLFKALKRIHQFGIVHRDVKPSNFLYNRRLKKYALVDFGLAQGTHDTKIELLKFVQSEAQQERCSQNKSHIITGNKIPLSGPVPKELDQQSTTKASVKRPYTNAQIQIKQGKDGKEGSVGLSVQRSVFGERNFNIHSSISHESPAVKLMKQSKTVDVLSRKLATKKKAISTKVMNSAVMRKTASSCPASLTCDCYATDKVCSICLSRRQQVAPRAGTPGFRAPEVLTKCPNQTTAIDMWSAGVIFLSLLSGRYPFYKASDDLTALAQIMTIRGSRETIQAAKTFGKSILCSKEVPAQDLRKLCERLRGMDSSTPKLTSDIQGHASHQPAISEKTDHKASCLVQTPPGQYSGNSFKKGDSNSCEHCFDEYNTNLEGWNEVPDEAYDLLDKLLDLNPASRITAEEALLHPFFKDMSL
T1 sequence (Q9UBU7 whole entry partner): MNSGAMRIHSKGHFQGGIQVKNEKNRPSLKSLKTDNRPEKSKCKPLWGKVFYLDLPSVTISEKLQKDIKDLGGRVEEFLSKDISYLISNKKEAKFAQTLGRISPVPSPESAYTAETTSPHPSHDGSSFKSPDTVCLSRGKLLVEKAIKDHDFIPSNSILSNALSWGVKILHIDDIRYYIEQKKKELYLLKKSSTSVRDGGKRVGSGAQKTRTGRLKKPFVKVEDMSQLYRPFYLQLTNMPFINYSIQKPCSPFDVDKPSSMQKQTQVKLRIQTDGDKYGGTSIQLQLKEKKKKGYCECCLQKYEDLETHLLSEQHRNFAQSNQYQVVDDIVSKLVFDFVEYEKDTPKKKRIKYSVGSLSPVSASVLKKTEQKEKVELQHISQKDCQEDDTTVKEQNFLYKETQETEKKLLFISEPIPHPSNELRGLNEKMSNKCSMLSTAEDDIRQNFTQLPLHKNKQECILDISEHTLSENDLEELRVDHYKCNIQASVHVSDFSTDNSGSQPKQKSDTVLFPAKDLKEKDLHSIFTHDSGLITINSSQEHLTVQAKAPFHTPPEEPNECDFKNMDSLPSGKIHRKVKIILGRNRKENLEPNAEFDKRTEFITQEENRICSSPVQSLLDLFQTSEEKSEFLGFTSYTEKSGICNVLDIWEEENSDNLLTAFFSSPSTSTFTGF

| SMILES | Ki [nM] |
| --- | --- |
| CC(C)NC(=O)NC1CCCC(Nc2cc(-c3c[nH]c4ncccc34)cc(Cl)n2)C1 (stereo not shown) [Example 301, 1-(3-{[6-chloro-4-(1H-pyrrolo[2,3-b]pyridin-3-yl)pyridin-2-yl]amino}cyclohexyl)-3-propan-2-ylurea] | < 10 |
| CCOC(=O)CNC(=O)NC1CCCC(Nc2cc(-c3c[nH]c4ncccc34)cc(Cl)n2)C1 (stereo not shown) [Example 302, ethyl N-[(3-{[6-chloro-4-(1H-pyrrolo[2,3-b]pyridin-3-yl)pyridin-2-yl]amino}cyclohexyl)carbamoyl]glycinate] | < 10 |
| O=C(NCC1CCCCC1)NC1CCCC(Nc2cc(-c3c[nH]c4ncccc34)cc(Cl)n2)C1 (stereo not shown) [Example 303, 1-(3-{[6-chloro-4-(1H-pyrrolo[2,3-b]pyridin-3-yl)pyridin-2-yl]amino}cyclohexyl)-3-(cyclohexylmethyl)urea] | 10 to 100 |
| CC(=O)c1ccc(S(=O)(=O)NCC(C)(C)CNc2cc(-c3c[nH]c4ncccc34)cc(Cl)n2)cc1 [Example 304, 4-acetyl-N-(3-{[6-chloro-4-(1H-pyrrolo[2,3-b]pyridin-3-yl)pyridin-2-yl]amino}-2,2-dimethylpropyl)benzenesulfonamide] | 10 to 100 |
| Cc1noc(C)c1S(=O)(=O)NCC(C)(C)CNc1cc(-c2c[nH]c3ncccc23)cc(Cl)n1 [Example 305, N-(3-{[6-chloro-4-(1H-pyrrolo[2,3-b]pyridin-3-yl)pyridin-2-yl]amino}-2,2-dimethylpropyl)-3,5-dimethyl-1,2-oxazole-4-sulfonamide] | 10 to 100 |
| CC(C)(CNc1cc(-c2c[nH]c3ncccc23)cc(Cl)n1)CNS(=O)(=O)c1cccs1 [Example 306, N-(3-{[6-chloro-4-(1H-pyrrolo[2,3-b]pyridin-3-yl)pyridin-2-yl]amino}-2,2-dimethylpropyl)thiophene-2-sulfonamide] | 10 to 100 |
| Cc1noc(C)c1S(=O)(=O)NC1CCCC(Nc2cc(-c3c[nH]c4ncccc34)cc(Cl)n2)C1 (stereo not shown) [Example 307, N-(3-{[6-chloro-4-(1H-pyrrolo[2,3-b]pyridin-3-yl)pyridin-2-yl]amino}cyclohexyl)-3,5-dimethyl-1,2-oxazole-4-sulfonamide] | < 10 |
| CCCNC(=O)NC1CCCC(Nc2cc(-c3c[nH]c4ncccc34)cc(Cl)n2)C1 (stereo not shown) [Example 308, 1-(3-{[6-chloro-4-(1H-pyrrolo[2,3-b]pyridin-3-yl)pyridin-2-yl]amino}cyclohexyl)-3-propylurea] | < 10 |
| CCCS(=O)(=O)NCC(C)(C)CNc1cc(-c2c[nH]c3ncccc23)cc(Cl)n1 [Example 309, N-(3-{[6-chloro-4-(1H-pyrrolo[2,3-b]pyridin-3-yl)pyridin-2-yl]amino}-2,2-dimethylpropyl)propane-1-sulfonamide] | < 10 |
| CC(=O)Nc1cc(-c2c[nH]c3ncccc23)cc(Cl)n1 [Example 310, N-[6-chloro-4-(1H-pyrrolo[2,3-b]pyridin-3-yl)pyridin-2-yl]acetamide] | < 10 |
| CC(C)S(=O)(=O)N[C@H]1CC[C@H](Nc2cc(-c3c[nH]c4ncccc34)cc(Cl)n2)CC1 [Example 311, N-(trans-4-{[6-chloro-4-(1H-pyrrolo[2,3-b]pyridin-3-yl)pyridin-2-yl]amino}cyclohexyl)propane-2-sulfonamide] | < 10 |
| CCS(=O)(=O)N[C@H]1CC[C@H](Nc2cc(-c3c[nH]c4ncccc34)cc(Cl)n2)CC1 [Example 312, N-(trans-4-{[6-chloro-4-(1H-pyrrolo[2,3-b]pyridin-3-yl)pyridin-2-yl]amino}cyclohexyl)ethanesulfonamide] | < 10 |
| CCCCS(=O)(=O)NCCNc1cc(-c2c[nH]c3ncccc23)cc(Cl)n1 [Example 313, N-(2-{[6-chloro-4-(1H-pyrrolo[2,3-b]pyridin-3-yl)pyridin-2-yl]amino}ethyl)butane-1-sulfonamide] | < 10 |
| O=S(=O)(NCCNc1cc(-c2c[nH]c3ncccc23)cc(Cl)n1)c1cccs1 [Example 314, N-(2-{[6-chloro-4-(1H-pyrrolo[2,3-b]pyridin-3-yl)pyridin-2-yl]amino}ethyl)thiophene-2-sulfonamide] | < 10 |
| CN1CCCC(Nc2cc(-c3c[nH]c4ncccc34)cc(Cl)n2)C1 (stereo not shown) [Example 315, 6-chloro-N-(1-methylpiperidin-3-yl)-4-(1H-pyrrolo[2,3-b]pyridin-3-yl)pyridin-2-amine] | < 10 |
| O=C(C1CC1)N1CCCC(CNc2cc(-c3c[nH]c4ncccc34)cc(Cl)n2)C1 (stereo not shown) [Example 316, [3-({[6-chloro-4-(1H-pynolo[2,3-b]pyridin-3-yl)pyridin-2-yl]amino}methyl)piperidin-1-yl](cyclopropyl)methanone] | < 10 |
| O=C(C1CC1)N1CCCC(CN(C(=O)C2CC2)c2cc(-c3c[nH]c4ncccc34)cc(Cl)n2)C1 (stereo not shown) [Example 317, N-[6-chloro-4-(1H-pyrrolo[2,3-b]pyridin-3-yl)pyridin-2-yl]-N-{[1-(cyclopropylcarbonyl)piperidin-3-yl]methyl}cyclopropanecarboxamide] | 10 to 100 |

| SMILES | Ki [nM] |
| --- | --- |
| Clc1cc(-c2c[nH]c3ncccc23)cc(NCC2CCCN(CC3CC3)C2)n1 (stereo not shown) [Example 318, 6-chloro-N-{[1-(cyclopropylmethyl)piperidin-3-yl]methyl}-4-(1H-pyrrolo[2,3-b]pyridin-3-yl)pyridin-2-amine] | 10 to 100 |
| Clc1cc(-c2c[nH]c3ncccc23)cc(NC2CCCN(CC3CC3)C2)n1 (stereo not shown) [Example 319, 6-chloro-N-[1-(cyclopropylmethyl)piperidin-3-yl]-4-(1H-pyrrolo[2,3-b]pyridin-3-yl)pyridin-2-amine] | < 10 |
| O=C(Cc1cc2ccccc2[nH]1)Nc1cc(-c2c[nH]c3ncccc23)cc(Cl)n1 [Example 320, N-[6-chloro-4-(1H-pyrrolo[2,3-b]pyridin-3-yl)pyridin-2-yl]-2-(1H-indol-2-yl)acetamide] | 10 to 100 |
| Clc1cc(-c2c[nH]c3ncccc23)cc(N[C@H]2CC[C@H](NC3CCCC3)CC2)n1 [Example 321, trans-N-[6-chloro-4-(1H-pyrrolo[2,3-b]pyridin-3-yl)pyridin-2-yl]-N′-cyclopentylcyclohexane-1,4-diamine] | < 10 |
| CC(C)CN[C@H]1CC[C@H](Nc2cc(-c3c[nH]c4ncccc34)cc(Cl)n2)CC1 [Example 322, trans-N-[6-chloro-4-(1H-pyrrolo[2,3-b]pyridin-3-yl)pyridin-2-yl]-N′-(2-methylpropyl)cyclohexane-1,4-diamine] | < 10 |
| Clc1cc(-c2c[nH]c3ncccc23)cc(NC2CCCC(N3CCCC3)C2)n1 (stereo not shown) [Example 323, 6-chloro-N-[3-(pyrrolidin-1-yl)cyclohexyl]-4-(1H-pyrrolo[2,3-b]pyridin-3-yl)pyridin-2-amine] | < 10 |
| Clc1cc(-c2c[nH]c3ncccc23)cc(NC2CCCC(N3CCCCC3)C2)n1 (stereo not shown) [Example 324, 6-chloro-N-[3-(piperidin-1-yl)cyclohexyl]-4-(1H-pyrrolo[2,3-b]pyridin-3-yl)pyridin-2-amine] | < 10 |
| CNCC(=O)N[C@H]1CC[C@H](Nc2cc(-c3c[nH]c4ncccc34)cc(Cl)n2)CC1 [Example 325, N-(trans-4-{[6-chloro-4-(1H-pyrrolo[2,3-b]pyridin-3-yl)pyridin-2-yl]amino}cyclohexyl)-N~2~-methylglycinamide] | < 10 |
| CN[C@@H](C)C(=O)NC1CCCC(Nc2cc(-c3c[nH]c4ncccc34)cc(Cl)n2)C1 (stereo partly shown) [Example 327, N-(3-{[6-chloro-4-(1H-pyrrolo[2,3-b]pyridin-3-yl)pyridin-2-yl]amino}cyclohexyl)-N~2~-methylalaninamide] | < 10 |
| CN[C@@H](C(=O)N[C@H]1CCC[C@H](Nc2cc(-c3c[nH]c4ncccc34)cc(Cl)n2)C1)c1ccccc1 [Example 328, (2R)—N-[(1S,3S)-3-{[6-chloro-4-(1H-pyrrolo[2,3-b]pyridin-3-yl)pyridin-2-yl]amino}cyclohexyl]-2-(methylamino)-2-phenylethanamide] | < 10 |
| CN[C@@H](C(=O)N[C@@H]1CCC[C@@H](Nc2cc(-c3c[nH]c4ncccc34)cc(Cl)n2)C1)c1ccccc1 [Example 329, (2R)—N-[(1R,3R)-3-{[6-chloro-4-(1H-pyrrolo[2,3-b]pyridin-3-yl)pyridin-2-yl]amino}cyclohexyl]-2-(methylamino)-2-phenylethanamide] | < 10 |
| O=S(=O)(N[C@@H]1CCCC[C@H]1Nc1cc(-c2c[nH]c3ncccc23)cc(Cl)n1)C1CC1 [Example 330, N-[(1R,2R)-2-{[6-chloro-4-(1H-pyrrolo[2,3-b]pyridin-3-yl)pyridin-2-yl]amino}cyclohexyl]cyclopropanesulfonamide] | 10 to 100 |
| O=S(=O)(Nc1cc(-c2c[nH]c3ncccc23)cc(Cl)n1)c1ccc(F)cc1 [Example 331, N-[6-chloro-4-(1H-pyrrolo[2,3-b]pyridin-3-yl)pyridin-2-yl]-4-fluorobenzenesulfonamide] | < 10 |
| O=S(=O)(Nc1cc(-c2c[nH]c3ncccc23)cc(Cl)n1)C1CC1 [Example 332, N-[6-chloro-4-(1H-pyrrolo[2,3-b]pyridin-3-yl)pyridin-2-yl]cyclopropanesulfonamide] | < 10 |
| CCN(CC)CC(C)(C)CNc1cc(-c2c[nH]c3ncccc23)cc(Cl)n1 [Example 333, N′-[6-chloro-4-(1H-pyrrolo[2,3-b]pyridin-3-yl)pyridin-2-yl]-N,N-diethyl-2,2-dimethylpropane-1,3-diamine] | < 10 |
| CCN(CC)[C@H]1CC[C@H](Nc2cc(-c3c[nH]c4ncccc34)cc(Cl)n2)CC1 [Example 334, trans-N′-[6-chloro-4-(1H-pyrrolo[2,3-b]pyridin-3-yl)pyridin-2-yl]-N,N-diethylcyclohexane-1,4-diamine] | < 10 |
| O=C1CC[C@H](C(=O)N[C@H]2CC[C@H](Nc3cc(-c4c[nH]c5ncccc45)cc(Cl)n3)CC2)N1 [Example 335, N-(trans-4-{[6-chloro-4-(1H-pyrrolo[2,3-b]pyridin-3-yl)pyridin-2-yl]amino}cyclohexyl)-5-oxo-D-prolinamide] | < 10 |
